ChEMBL document CHEMBL5723582, “Data for DCP probe T-10430” (2024)

Legend:
Settings in all cases: Compound concentration 1.0 uM
[1] = target: Prokineticin receptor 1 (Homo sapiens) (UniProt Q8TCW9); assay: RLU of PK1 at 1.0 µM in the […] PRESTO-Tango GPCRome screen
[2] = target: Probable G-protein coupled receptor 153 (Homo sapiens) (UniProt Q6NV75); assay: RLU of GPR153 at 1.0 µM in the […] PRESTO-Tango GPCRome screen
[3] = target: Gamma-aminobutyric acid type B receptor subunit 1 (Homo sapiens) (UniProt Q9UBS5); assay: RLU of GABBR1 at 1.0 µM in the […] PRESTO-Tango GPCRome screen
[4] = target: D(2) dopamine receptor (Homo sapiens) (UniProt P14416); assay: RLU of DRD2 at 1.0 µM in the […] PRESTO-Tango GPCRome screen
[5] = target: Glucagon-like peptide 1 receptor (Homo sapiens) (UniProt P43220); assay: RLU of GLP1R at 1.0 µM in the […] PRESTO-Tango GPCRome screen
[6] = target: Lutropin-choriogonadotropic hormone receptor (Homo sapiens) (UniProt P22888); assay: RLU of LHCGR at 1.0 µM in the […] PRESTO-Tango GPCRome screen
[7] = target: Neuromedin-U receptor 2 (Homo sapiens) (UniProt Q9GZQ4); assay: RLU of NMUR2 at 1.0 µM in the […] PRESTO-Tango GPCRome screen
[8] = target: G-protein coupled receptor 55 (Homo sapiens) (UniProt Q9Y2T6); assay: RLU of GPR55 at 1.0 µM in the […] PRESTO-Tango GPCRome screen
[9] = target: Neurotensin receptor type 1 (Homo sapiens) (UniProt P30989); assay: RLU of NTSR1 at 1.0 µM in the […] PRESTO-Tango GPCRome screen
[10] = target: Galanin receptor type 1 (Homo sapiens) (UniProt P47211); assay: RLU of GAL1 at 1.0 µM in the […] PRESTO-Tango GPCRome screen
[11] = target: Prostaglandin D2 receptor (Homo sapiens) (UniProt Q13258); assay: RLU of PTGDR at 1.0 µM in the […] PRESTO-Tango GPCRome screen
[12] = target: G protein-coupled receptor 88 (Homo sapiens) (UniProt Q9GZN0); assay: RLU of GPR88 at 1.0 µM in the […] PRESTO-Tango GPCRome screen
[13] = target: Mas-related G-protein coupled receptor member D (Homo sapiens) (UniProt Q8TDS7); assay: RLU of MRGPRD at 1.0 µM in the […] PRESTO-Tango GPCRome screen
[14] = target: Substance-K receptor (Homo sapiens) (UniProt P21452); assay: RLU of TACR2 at 1.0 µM in the […] PRESTO-Tango GPCRome screen
[15] = target: Delta-type opioid receptor (Homo sapiens) (UniProt P41143); assay: RLU of OPRD1 at 1.0 µM in the […] PRESTO-Tango GPCRome screen
[16] = target: Proto-oncogene Mas (Homo sapiens) (UniProt P04201); assay: RLU of MAS1 at 1.0 µM in the […] PRESTO-Tango GPCRome screen
[17] = target: G-protein coupled receptor 39 (Homo sapiens) (UniProt O43194); assay: RLU of GPR39 at 1.0 µM in the […] PRESTO-Tango GPCRome screen
[18] = target: Melatonin receptor type 1B (Homo sapiens) (UniProt P49286); assay: RLU of MTNR1B at 1.0 µM in the […] PRESTO-Tango GPCRome screen
[19] = target: Platelet-activating factor receptor (Homo sapiens) (UniProt P25105); assay: RLU of PTAFR at 1.0 µM in the […] PRESTO-Tango GPCRome screen
[20] = target: Prostaglandin E2 receptor EP2 subtype (Homo sapiens) (UniProt P43116); assay: RLU of PTGER2 at 1.0 µM in the […] PRESTO-Tango GPCRome screen
[21] = target: KiSS-1 receptor (Homo sapiens) (UniProt Q969F8); assay: RLU of KISSPEPTIN at 1.0 µM in the […] PRESTO-Tango GPCRome screen
[22] = target: Neuromedin-B receptor (Homo sapiens) (UniProt P28336); assay: RLU of NMBR at 1.0 µM in the […] PRESTO-Tango GPCRome screen
[23] = target: Mas-related G-protein coupled receptor member F (Homo sapiens) (UniProt Q96AM1); assay: RLU of MRGPRF at 1.0 µM in the […] PRESTO-Tango GPCRome screen
[24] = target: Somatostatin receptor type 3 (Homo sapiens) (UniProt P32745); assay: RLU of SSTR3 at 1.0 µM in the […] PRESTO-Tango GPCRome screen
[25] = target: 5-hydroxytryptamine receptor 2B (Homo sapiens) (UniProt P41595); assay: RLU of HTR2B at 1.0 µM in the […] PRESTO-Tango GPCRome screen
[26] = target: Parathyroid hormone 2 receptor (Homo sapiens) (UniProt P49190); assay: RLU of PTH2R at 1.0 µM in the […] PRESTO-Tango GPCRome screen
[27] = target: Adhesion G protein-coupled receptor A2 (Homo sapiens) (UniProt Q96PE1); assay: RLU of GPR124 at 1.0 µM in the […] PRESTO-Tango GPCRome screen
[28] = target: Neuromedin-U receptor 1 (Homo sapiens) (UniProt Q9HB89); assay: RLU of NMUR1 at 1.0 µM in the […] PRESTO-Tango GPCRome screen
[29] = target: Adenosine receptor A2a (Homo sapiens) (UniProt P29274); assay: RLU of ADORA2A at 1.0 µM in the […] PRESTO-Tango GPCRome screen
[30] = target: Histamine H3 receptor (Homo sapiens) (UniProt Q9Y5N1); assay: RLU of HRH3 at 1.0 µM in the Aequorin PRESTO-Tango GPCRome screen
[31] = target: G-protein coupled receptor 157 (Homo sapiens) (UniProt Q5UAW9); assay: RLU of GPR157 at 1.0 µM in the […] PRESTO-Tango GPCRome screen
[32] = target: G-protein coupled receptor 20 (Homo sapiens) (UniProt Q99678); assay: RLU of GPR20 at 1.0 µM in the […] PRESTO-Tango GPCRome screen
[33] = target: C-C chemokine receptor type 5 (Homo sapiens) (UniProt P51681); assay: RLU of CCR5 at 1.0 µM in the […] PRESTO-Tango GPCRome screen
[34] = target: Lysophosphatidic acid receptor 4 (Homo sapiens) (UniProt Q99677); assay: RLU of LPAR4 at 1.0 µM in the […] PRESTO-Tango GPCRome screen
[35] = target: Prostaglandin E2 receptor EP1 subtype (Homo sapiens) (UniProt P34995); assay: RLU of PTGER1 at 1.0 µM in the […] PRESTO-Tango GPCRome screen
[36] = target: Thyrotropin receptor (Homo sapiens) (UniProt P16473); assay: RLU of TSHR at 1.0 µM in the […] PRESTO-Tango GPCRome screen

Sequence of Adhesion G protein-coupled receptor A2 (Homo sapiens) (Q96PE1 whole entry): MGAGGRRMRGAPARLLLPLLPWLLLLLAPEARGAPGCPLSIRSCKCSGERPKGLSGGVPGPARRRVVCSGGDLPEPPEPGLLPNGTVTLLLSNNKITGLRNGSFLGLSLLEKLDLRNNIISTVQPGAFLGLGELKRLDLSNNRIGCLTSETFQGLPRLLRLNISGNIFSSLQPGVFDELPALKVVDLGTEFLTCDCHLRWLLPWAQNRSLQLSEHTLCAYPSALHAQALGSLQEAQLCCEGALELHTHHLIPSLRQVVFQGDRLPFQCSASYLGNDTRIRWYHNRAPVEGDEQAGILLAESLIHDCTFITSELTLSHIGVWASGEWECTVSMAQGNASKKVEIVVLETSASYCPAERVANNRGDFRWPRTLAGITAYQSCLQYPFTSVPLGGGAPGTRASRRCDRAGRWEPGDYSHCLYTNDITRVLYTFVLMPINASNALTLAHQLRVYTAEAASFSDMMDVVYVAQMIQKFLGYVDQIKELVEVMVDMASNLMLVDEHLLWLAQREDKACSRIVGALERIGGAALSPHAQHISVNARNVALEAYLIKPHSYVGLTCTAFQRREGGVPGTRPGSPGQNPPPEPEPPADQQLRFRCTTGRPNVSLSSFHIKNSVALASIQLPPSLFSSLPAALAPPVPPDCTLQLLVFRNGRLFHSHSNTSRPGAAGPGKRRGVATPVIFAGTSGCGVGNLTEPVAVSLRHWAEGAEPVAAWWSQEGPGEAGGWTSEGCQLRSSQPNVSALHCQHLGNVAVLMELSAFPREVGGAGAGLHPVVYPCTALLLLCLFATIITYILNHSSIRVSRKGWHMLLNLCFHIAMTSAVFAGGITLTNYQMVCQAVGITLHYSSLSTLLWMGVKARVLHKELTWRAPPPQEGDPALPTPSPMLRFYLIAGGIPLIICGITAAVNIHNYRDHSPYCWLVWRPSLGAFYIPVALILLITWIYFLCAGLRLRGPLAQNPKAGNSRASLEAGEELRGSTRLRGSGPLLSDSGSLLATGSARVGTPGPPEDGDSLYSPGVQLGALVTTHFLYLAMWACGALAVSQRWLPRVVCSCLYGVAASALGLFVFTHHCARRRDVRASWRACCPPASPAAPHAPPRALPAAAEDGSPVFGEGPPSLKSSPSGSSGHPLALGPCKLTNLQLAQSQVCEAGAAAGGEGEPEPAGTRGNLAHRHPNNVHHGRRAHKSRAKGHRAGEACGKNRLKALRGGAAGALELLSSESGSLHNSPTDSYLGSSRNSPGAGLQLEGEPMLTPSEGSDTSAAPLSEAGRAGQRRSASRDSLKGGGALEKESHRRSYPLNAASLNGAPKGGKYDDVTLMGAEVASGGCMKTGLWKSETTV
Sequence of Prostaglandin E2 receptor EP1 subtype (Homo sapiens) (P34995 whole entry): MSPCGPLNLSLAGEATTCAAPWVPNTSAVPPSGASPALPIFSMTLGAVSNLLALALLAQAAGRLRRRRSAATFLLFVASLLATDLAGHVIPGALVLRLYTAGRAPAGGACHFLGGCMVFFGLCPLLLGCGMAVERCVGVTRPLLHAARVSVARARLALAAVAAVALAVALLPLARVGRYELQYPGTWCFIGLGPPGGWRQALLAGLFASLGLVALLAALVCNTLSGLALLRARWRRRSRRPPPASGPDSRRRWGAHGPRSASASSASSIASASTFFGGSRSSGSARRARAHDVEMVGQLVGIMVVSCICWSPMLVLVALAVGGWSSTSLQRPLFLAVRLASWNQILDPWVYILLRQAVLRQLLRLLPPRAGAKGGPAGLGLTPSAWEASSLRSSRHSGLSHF
Sequence of Platelet-activating factor receptor (Homo sapiens) (P25105 whole entry): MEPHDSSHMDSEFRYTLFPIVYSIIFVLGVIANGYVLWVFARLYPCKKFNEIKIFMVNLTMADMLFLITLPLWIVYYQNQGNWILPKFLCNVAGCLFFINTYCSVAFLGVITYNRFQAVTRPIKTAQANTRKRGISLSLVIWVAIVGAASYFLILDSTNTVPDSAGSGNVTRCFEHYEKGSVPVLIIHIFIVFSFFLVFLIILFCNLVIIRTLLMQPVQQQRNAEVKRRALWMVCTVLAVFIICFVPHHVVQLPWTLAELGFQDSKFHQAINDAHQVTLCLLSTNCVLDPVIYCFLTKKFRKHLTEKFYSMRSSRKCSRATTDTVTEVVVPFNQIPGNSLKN
Sequence of Prokineticin receptor 1 (Homo sapiens) (Q8TCW9 whole entry): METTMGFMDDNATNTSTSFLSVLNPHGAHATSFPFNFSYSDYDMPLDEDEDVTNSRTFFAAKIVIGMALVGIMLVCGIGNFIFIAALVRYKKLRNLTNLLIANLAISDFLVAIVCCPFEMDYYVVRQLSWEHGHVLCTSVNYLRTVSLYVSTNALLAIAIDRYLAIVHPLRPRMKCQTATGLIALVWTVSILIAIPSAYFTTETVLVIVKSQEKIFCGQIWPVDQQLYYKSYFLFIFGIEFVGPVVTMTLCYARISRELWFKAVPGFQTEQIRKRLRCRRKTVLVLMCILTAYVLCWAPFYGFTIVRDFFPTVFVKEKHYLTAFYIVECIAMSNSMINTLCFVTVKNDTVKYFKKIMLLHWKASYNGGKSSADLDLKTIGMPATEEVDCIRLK
Sequence of G-protein coupled receptor 55 (Homo sapiens) (Q9Y2T6 whole entry): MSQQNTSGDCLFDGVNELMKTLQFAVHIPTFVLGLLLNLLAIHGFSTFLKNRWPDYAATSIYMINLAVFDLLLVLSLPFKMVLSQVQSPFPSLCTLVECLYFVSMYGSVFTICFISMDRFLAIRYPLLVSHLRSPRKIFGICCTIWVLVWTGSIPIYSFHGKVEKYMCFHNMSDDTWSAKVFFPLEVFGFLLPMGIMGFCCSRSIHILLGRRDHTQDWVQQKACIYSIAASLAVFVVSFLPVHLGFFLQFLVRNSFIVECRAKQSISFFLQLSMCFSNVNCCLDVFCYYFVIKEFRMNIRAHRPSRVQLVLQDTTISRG
Sequence of Galanin receptor type 1 (Homo sapiens) (P47211 whole entry): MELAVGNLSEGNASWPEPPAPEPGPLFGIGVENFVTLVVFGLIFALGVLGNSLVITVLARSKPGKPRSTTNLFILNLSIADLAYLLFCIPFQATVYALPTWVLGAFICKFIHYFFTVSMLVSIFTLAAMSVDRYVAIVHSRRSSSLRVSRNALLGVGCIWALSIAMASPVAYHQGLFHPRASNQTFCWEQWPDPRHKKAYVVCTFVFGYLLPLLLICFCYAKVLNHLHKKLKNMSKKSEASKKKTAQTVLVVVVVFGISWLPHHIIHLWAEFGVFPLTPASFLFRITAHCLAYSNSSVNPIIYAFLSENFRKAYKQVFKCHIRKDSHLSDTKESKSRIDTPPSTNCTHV
Sequence of Neuromedin-U receptor 1 (Homo sapiens) (Q9HB89 whole entry): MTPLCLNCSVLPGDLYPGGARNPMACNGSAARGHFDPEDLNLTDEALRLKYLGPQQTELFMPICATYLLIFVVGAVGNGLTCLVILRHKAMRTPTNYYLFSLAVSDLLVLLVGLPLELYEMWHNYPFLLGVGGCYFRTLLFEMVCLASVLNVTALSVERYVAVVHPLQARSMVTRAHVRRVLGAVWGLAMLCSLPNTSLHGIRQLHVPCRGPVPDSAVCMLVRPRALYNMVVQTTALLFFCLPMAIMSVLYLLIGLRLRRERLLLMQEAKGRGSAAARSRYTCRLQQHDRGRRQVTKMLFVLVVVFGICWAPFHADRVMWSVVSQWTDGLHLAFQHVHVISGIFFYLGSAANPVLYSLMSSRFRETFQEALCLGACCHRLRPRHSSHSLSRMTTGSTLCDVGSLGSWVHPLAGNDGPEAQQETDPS
Sequence of G-protein coupled receptor 20 (Homo sapiens) (Q99678 whole entry): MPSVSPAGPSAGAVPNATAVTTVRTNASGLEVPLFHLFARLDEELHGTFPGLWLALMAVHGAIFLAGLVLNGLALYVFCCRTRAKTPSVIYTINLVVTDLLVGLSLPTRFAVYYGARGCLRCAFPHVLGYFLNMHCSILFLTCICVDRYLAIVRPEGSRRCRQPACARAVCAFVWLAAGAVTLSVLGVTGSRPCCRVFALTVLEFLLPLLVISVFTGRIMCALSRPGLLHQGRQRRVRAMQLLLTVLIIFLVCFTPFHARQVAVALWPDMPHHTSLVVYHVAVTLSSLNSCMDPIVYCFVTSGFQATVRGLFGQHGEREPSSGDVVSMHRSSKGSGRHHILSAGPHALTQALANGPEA
Sequence of C-C chemokine receptor type 5 (Homo sapiens) (P51681 whole entry, looked up): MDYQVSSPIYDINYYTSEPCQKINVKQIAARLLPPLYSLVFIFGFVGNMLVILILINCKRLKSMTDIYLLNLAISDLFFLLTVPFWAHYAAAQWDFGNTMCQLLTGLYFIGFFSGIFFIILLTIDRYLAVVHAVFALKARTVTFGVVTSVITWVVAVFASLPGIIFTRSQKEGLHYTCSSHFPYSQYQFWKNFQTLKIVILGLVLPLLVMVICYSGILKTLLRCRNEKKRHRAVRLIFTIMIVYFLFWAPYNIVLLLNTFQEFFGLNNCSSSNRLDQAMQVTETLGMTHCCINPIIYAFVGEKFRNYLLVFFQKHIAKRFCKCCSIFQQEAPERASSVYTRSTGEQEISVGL
Sequence of Substance-K receptor (Homo sapiens) (P21452 whole entry): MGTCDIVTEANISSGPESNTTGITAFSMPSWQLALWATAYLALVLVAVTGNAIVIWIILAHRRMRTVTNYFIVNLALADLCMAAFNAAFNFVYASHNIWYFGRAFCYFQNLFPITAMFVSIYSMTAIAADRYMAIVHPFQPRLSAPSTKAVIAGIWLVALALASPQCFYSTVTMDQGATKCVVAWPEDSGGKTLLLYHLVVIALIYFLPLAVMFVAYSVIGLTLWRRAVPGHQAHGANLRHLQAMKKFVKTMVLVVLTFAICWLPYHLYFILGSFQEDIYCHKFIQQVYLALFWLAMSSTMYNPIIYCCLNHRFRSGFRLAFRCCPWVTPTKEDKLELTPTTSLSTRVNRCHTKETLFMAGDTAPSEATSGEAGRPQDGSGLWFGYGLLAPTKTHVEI

RLU [1]: 10800
RLU [2]: -4690
RLU [3]: 3390
RLU [4]: 2200
RLU [5]: 3480
RLU [6]: 154
RLU [7]: 710
RLU [8]: 602000
RLU [9]: -1300
RLU [10]: -212
RLU [11]: 375
RLU [12]: 162
RLU [13]: -630
RLU [14]: -238
RLU [15]: 1290
RLU [16]: -1360
RLU [17]: 8020
RLU [18]: 4170
RLU [19]: 82.9
RLU [20]: 613
RLU [21]: 2040
RLU [22]: 937
RLU [23]: -194
RLU [24]: 342
RLU [25]: -1740
RLU [26]: -1530
RLU [27]: -2920
RLU [28]: 1950
RLU [29]: 1000
RLU [30]: -6780
RLU [31]: -4180
RLU [32]: -1200
RLU [33]: 2710
RLU [34]: -668
RLU [35]: -390
RLU [36]: -406
Structure (SMILES): CCCCC(=O)N1CC2(C1)CN(c1ccccc1-c1nnn[nH]1)C2
